Results on ten molecules are retold here after PubChem BioAssay (NCI).

Assay in all cases: NCI tumour cell line growth inhibition, 48 h
The test system of assay [1] is BT-549 breast.
In assay [2] the test system is DU-145 prostate.
In assay [3] the test system is EKVX NSCLC.
For assay [4], the system named is HL-60(TB) leukemia.
The subject of assay [5] is KM12 colon.
In assay [6] the test system is MDA-MB-231 breast.
Assay [7] has as its system MOLT-4 leukemia.
In assay [8] the test system is SF-268 CNS.
The subject of assay [9] is SK-MEL-2 melanoma.
For assay [10], the system named is SK-OV-3 ovarian.

Values joined by “and” are separate entries in the source; they are usually repeats but may differ in a detail not shown here. Equal entries are not always repeated.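 Where inhibition never reached the appropriate level, the endpoint shown equals the highest concentration tested. Otherwise, values were interpolated linearly from a five-concentration, 48-hour dose response in 96-well plates. GI50: concentration for 50% inhibition of growth. Definition used: TGI = concentration required for complete inhibition of growth.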 Bounds are passed on as bounds.

As for `CC[C@@]1(O)C(=O)NCc2c1cc1n(c2=O)Cc2cc3c(N)cccc3nc2-1`, the GI50 in [1] was 17.8 µM; in assay [2], 1.04 µM; in assay [3] it was 16.5 µM; in assay [4] it was 1.19 µM; in [5] it was 10.6 µM; in assay [6], 16.4 µM. Also, the GI50 in assay [7] is 0.301 µM; in assay [8], 0.558 µM; in [9], 9.29 µM; in [10], 4.54 µM. For the same molecule, the TGI in [1] was above 100 µM; in assay [2], 17.9 µM; in assay [3] it was above 51.7 µM; in [4], above 34.6 µM; in assay [5] it was above 36.9 µM; in assay [6], above 60.3 µM. In addition, the TGI in [7] was 16.6 µM; in assay [9], above 17.7 µM; in assay [10], above 86.1 µM.

As for `C[C@]1(CO)[C@H]2CC[C@@]34C=C[C@@](CO)(CC[C@H]3[C@]2(C)CC[C@H]1O)C4`, the TGI in [1], in assay [2], in assay [3], in assay [4], in assay [5] and in assay [6] was above 100 µM in each case. In addition, the TGI in [7] is 48.9 µM; in assay [8] it was above 100 µM; in assay [9], above 100 µM; in [10], above 100 µM.

Take `CCOC(=O)C(Cc1c[nH]c2ccc(N(CCCl)CCCl)cc12)(NC(C)=O)C(=O)OCC`: the GI50 in [1] was 16.3 µM and 12.2 µM; in assay [2], 14.6 µM and 7.62 µM; in assay [3], 52.2 µM and 38.7 µM; in assay [4], 3.29 µM and 1.43 µM; in [5] it was 22.1 µM and 14.9 µM; in assay [6], 24.6 µM and 33.3 µM. For the same molecule, the GI50 in assay [7] is 2.88 µM and 0.957 µM; in assay [8], 5.21 µM; in assay [9], 5.04 µM and 27.6 µM; in assay [10], 22.6 µM and 17.5 µM. For the same molecule, the TGI in assay [1] is 39.3 µM and 50.2 µM; in [2] it was 70 µM and 58.1 µM; in assay [3], 403 µM; in [4] it was 12.1 µM and 9.89 µM; in [5], 83.5 µM and 36.3 µM; in [6], 81.2 µM and 575 µM. The TGI in assay [7] is 13 µM and 26.2 µM; in assay [8] it was 46.5 µM; in assay [9] it was 19.3 µM and 65.9 µM; in assay [10] it was 99.4 µM and 131 µM.

In the case of `CC(C)c1ccc(C(=O)Nc2sc3c(c2C#N)CCC(=O)C3)cc1`, the GI50 was 0.306 µM in [1]; 4.26 µM in assay [2]; 1.94 µM in assay [3]; 0.413 µM in [4]; 0.413 µM in [5]; 0.594 µM in assay [6]. The GI50 is 0.412 µM in [7], 0.432 µM in assay [8], 1.6 µM in assay [9] and 2.39 µM in assay [10]. Also, the TGI is 3.13 µM in assay [1]; above 100 µM in assay [2]; above 88.8 µM in assay [3]; 7.83 µM in assay [5]; 2.88 µM in assay [6]; above 100 µM in [7]. In addition, the figures for the TGI in assay [8], in assay [9] and in assay [10] were above 75 µM, 5.97 µM and 8.15 µM, respectively.

As to `COC(=O)c1c2c(c(C)[n+]([O-])c1C)C(=O)C=C(NCc1ccc(F)c(F)c1)C2=O`, the GI50 in assay [1] was 1.12 µM; in assay [2] it was 1.06 µM; in [3], 0.685 µM; in assay [4], 0.302 µM; in [5], 0.28 µM; in assay [6], 0.251 µM. The GI50 was 0.588 µM in [7], 1.07 µM in [8], 0.874 µM in assay [9] and 1.86 µM in [10]. For the same molecule, the TGI turned out to be 2.42 µM in assay [1]; 2.28 µM in [2]; 2.26 µM in assay [3]; 1.02 µM in assay [4]; 1.71 µM in [5]; 1.83 µM in [6]. Also, the TGI in assay [7] turned out to be 2.12 µM; in [8] it was 3.32 µM; in assay [9], 2.37 µM; in assay [10], 4.06 µM.

Take `O=C(NCCCNc1cc(-c2cn(-c3ccccc3)nc2-c2cccc(O)c2)ccn1)c1ccccc1`: the GI50 in [1] was 2.72 µM; in [2] it was 5.29 µM; in assay [3], 3.16 µM; in assay [4] it was 1.68 µM; in assay [5] it was 3.34 µM; in assay [6] it was 2.34 µM. The GI50 is 1.41 µM in assay [7], 3.74 µM in assay [8], 3.42 µM in [9] and 6.63 µM in assay [10]. For the same molecule, the TGI in assay [1] is 9.47 µM; in assay [2], 96.5 µM; in assay [3], above 100 µM; in [4], 4.19 µM; in assay [5], 14.8 µM; in assay [6], 5.4 µM. The TGI was 3.78 µM in assay [7], above 100 µM in assay [8], 13.7 µM in assay [9] and 92.8 µM in assay [10].

With `CC(C)c1ccc(/C(C(=O)O)=C(\O)C(=O)O)cc1`, the TGI in assay [1], in assay [2], in [3], in assay [4], in assay [5] and in assay [6] was above 100 µM each time. The TGI in [7], in [8], in assay [9] and in assay [10] was above 100 µM each time.

On to `NNc1cccc(/C=C/c2ccccc2)cc1=O`, for which the GI50 was 33.5 µM in assay [1]; 7.04 µM in [2]; 3.27 µM in assay [3]; 3.97 µM in assay [4]; 8.33 µM in assay [5]; 4.73 µM in assay [6]. Besides, the GI50 was 3.94 µM in assay [7], 4.27 µM in assay [8], 70.1 µM in assay [9] and 19.8 µM in assay [10]. Besides, the TGI in [1] was above 100 µM; in assay [2], above 100 µM; in assay [3], 35.8 µM; in assay [4] it was above 100 µM; in assay [5], above 100 µM; in assay [6], above 100 µM. The TGI in assay [7], in assay [8], in [9] and in assay [10] was above 100 µM throughout.

Take `O=C1C=C(Br)C(=O)C12CCc1ccccc12` (stereo not drawn): the TGI came out at 34.2 µM in assay [1]; 31.7 µM in assay [2]; 62 µM in assay [3]; 25.2 µM in assay [4]; 44.6 µM in assay [5]; 70.2 µM in [6]. For the same molecule, the TGI worked out at 6.89 µM in assay [7], 58.7 µM in assay [8], 54.2 µM in [9] and 42.6 µM in assay [10].

Turning to `CN1CCCN(C)C1c1cc([N+](=O)[O-])ccc1O`, the TGI in [1] is above 100 µM; in [2] it was above 100 µM; in [3] it was above 100 µM; in assay [4], 61.4 µM; in assay [5], above 100 µM; in assay [6], above 100 µM. Further, the TGI was 59.8 µM in assay [7], above 100 µM in assay [8], above 100 µM in [9] and above 100 µM in assay [10].
